# Results reported in patent US12344600B2, “c-Myc mRNA translation modulators and uses thereof in the treatment of cancer” (Anima Biotech Inc., priority 2022, dated 2025).
# Test system: c-Myc
# Assay: c-Myc immunofluorescence assay
# Format: cell-based, human
# Conditions: A549 cells, 24 hours, anti-c-Myc immunofluorescence
# Procedure, shortened: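 A549 NSCLC cells grown 48 h, then treated 24 h with increasing compound concentrations; fixed in 4% paraformaldehyde, stained with anti-c-Myc antibody plus fluorescent secondary and DAPI. Per-cell c-Myc fluorescence quantified by high-content imaging at 20×; dose-response fitted by logistic regression to give EC50.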
row,Structure (SMILES),Myc Efficacy (−LogEC50)
1,"COc1ccc(-c2noc(N3CCC(C(=O)NCC4CCN(CC5CCCO5)C4)CC3)n2)cc1 (stereo not shown) [Compound 405, 1-(3-(4-methoxyphenyl)-1,2,4-oxadiazol-5-yl)-N-((1-((tetrahydrofuran-2-yl)methyl)pyrrolidin-3-yl)methyl)piperidine-4-carboxamide]",+ (+ >3 and <5)
2,"COc1ccc(-c2noc(N3CCC(C(=O)NCC4CCN(Cc5occc5C)C4)CC3)n2)cc1 (stereo not shown) [Compound 406, 1-(3-(4-methoxyphenyl)-1,2,4-oxadiazol-5-yl)-N-((1-((3-methylfuran-2-yl)methyl)pyrrolidin-3-yl)methyl)piperidine-4-carboxamide]",+ (+ >3 and <5)
3,"COc1ccc(-c2noc(N3CCC(C(=O)NCC4CCN(Cc5ncc(C)s5)C4)CC3)n2)cc1 (stereo not shown) [Compound 407, 1-(3-(4-methoxyphenyl)-1,2,4-oxadiazol-5-yl)-N-((1-((5-methylthiazol-2-yl)methyl)pyrrolidin-3-yl)methyl)piperidine-4-carboxamide]",++ (++ ≥5 and <6)
4,"COc1ccc(-c2noc(N3CCC(C(=O)NCC4CCN(CC5COC5)C4)CC3)n2)cc1 (stereo not shown) [Compound 408, 1-(3-(4-methoxyphenyl)-1,2,4-oxadiazol-5-yl)-N-((1-(oxetan-3-ylmethyl)pyrrolidin-3-yl)methyl)piperidine-4-carboxamide]",+ (+ >3 and <5)
5,"COc1ccc(-c2noc(N3CCC(C(=O)NCC4CCN(CC5=CCCCC5)C4)CC3)n2)cc1 (stereo not shown) [Compound 409, N-((1-(cyclohex-1-en-1-ylmethyl)pyrrolidin-3-yl)methyl)-1-(3-(4-methoxyphenyl)-1,2,4-oxadiazol-5-yl)piperidine-4-carboxamide]",++ (++ ≥5 and <6)
6,"COc1ccc(-c2noc(N3CCC(C(=O)NCC4CCN(CC=C(C)C)C4)CC3)n2)cc1 (stereo not shown) [Compound 410, 1-(3-(4-methoxyphenyl)-1,2,4-oxadiazol-5-yl)-N-((1-(3-methylbut-2-en-1-yl)pyrrolidin-3-yl)methyl)piperidine-4-carboxamide]",++ (++ ≥5 and <6)
7,"COc1ccc(-c2noc(N3CCC(C(=O)NCC4CCN(CCC(C)C)C4)CC3)n2)cc1 (stereo not shown) [Compound 411, N-((1-isopentylpyrrolidin-3-yl)methyl)-1-(3-(4-methoxyphenyl)-1,2,4-oxadiazol-5-yl)piperidine-4-carboxamide]",++ (++ ≥5 and <6)
8,"COc1ccc(-c2noc(N3CCC(C(=O)NCC4CCN(C[C@@H]5CCCNC5)C4)CC3)n2)cc1 (stereo partly drawn) [Compound 412, 1-(3-(4-methoxyphenyl)-1,2,4-oxadiazol-5-yl)-N-((1-(((R)-piperidin-3-yl)methyl)pyrrolidin-3-yl)methyl)piperidine-4-carboxamide]",− (− ≤3)
9,"COc1ccc(-c2noc(N3CCC(C(=O)NCC4CCN(C[C@H]5CCN5)C4)CC3)n2)cc1 (stereo partly drawn) [Compound 413, N-((1-(((R)-azetidin-2-yl)methyl)pyrrolidin-3-yl)methyl)-1-(3-(4-methoxyphenyl)-1,2,4-oxadiazol-5-yl)piperidine-4-carboxamide]",− (− ≤3)
10,"COc1ccc(-c2noc(N3CCC(C(=O)NCC4CCN(C[C@H]5CCCCN5C)C4)CC3)n2)cc1 (stereo partly drawn) [Compound 414, 1-(3-(4-methoxyphenyl)-1,2,4-oxadiazol-5-yl)-N-((1-(((R)-1-methylpiperidin-2-yl)methyl)pyrrolidin-3-yl)methyl)piperidine-4-carboxamide]",+ (+ >3 and <5)
11,"COc1ccc(-c2noc(N3CCC(C(=O)NCC4CCN(C[C@H]5CCCCN5)C4)CC3)n2)cc1 (stereo partly drawn) [Compound 415, 1-(3-(4-methoxyphenyl)-1,2,4-oxadiazol-5-yl)-N-((1-(((R)-piperidin-2-yl)methyl)pyrrolidin-3-yl)methyl)piperidine-4-carboxamide]",+ (+ >3 and <5)
12,"COc1ccc(-c2noc(N3CCC(C(=O)NCC4CCN(C(C)C5CCOCC5)C4)CC3)n2)cc1 (stereo not shown) [Compound 416, 1-(3-(4-methoxyphenyl)-1,2,4-oxadiazol-5-yl)-N-((1-(1-(tetrahydro-2H-pyran-4-yl)ethyl)pyrrolidin-3-yl)methyl)piperidine-4-carboxamide]",+ (+ >3 and <5)
13,"COc1ccc(-c2noc(N3CCN(C(=O)NCc4cc5ccccc5[nH]4)CC3)n2)cc1 [Compound 417, N-((1H-indol-2-yl)methyl)-4-(3-(4-methoxyphenyl)-1,2,4-oxadiazol-5-yl)piperazine-1-carboxamide]",++ (++ ≥5 and <6)
14,"COc1ccc(-c2noc(N3CCC(C(=O)NCc4cc5cccnc5[nH]4)CC3)n2)cc1 [Compound 418, N-((1H-pyrrolo[2,3-b]pyridin-2-yl)methyl)-1-(3-(4-methoxyphenyl)-1,2,4-oxadiazol-5-yl)piperidine-4-carboxamide]",+ (+ >3 and <5)
15,"COc1ccc(-c2noc(N3CCC(C(=O)NCc4nc5ccccc5[nH]4)CC3)n2)cc1 [Compound 419, N-((1H-benzo[d]imidazol-2-yl)methyl)-1-(3-(4-methoxyphenyl)-1,2,4-oxadiazol-5-yl)piperidine-4-carboxamide]",++ (++ ≥5 and <6)
16,"COc1ccc(-c2noc(N3CCC(C(=O)NCc4nc5ccccc5o4)CC3)n2)cc1 [Compound 420, N-(benzo[d]oxazol-2-ylmethyl)-1-(3-(4-methoxyphenyl)-1,2,4-oxadiazol-5-yl)piperidine-4-carboxamide]",+ (+ >3 and <5)
17,"COc1ccc(-c2noc(N3CCN(C(=O)NCC4CCN(CC5CCCCC5)C4)CC3)n2)cc1 (stereo not shown) [Compound 421, N-((1-(cyclohexylmethyl)pyrrolidin-3-yl)methyl)-4-(3-(4-methoxyphenyl)-1,2,4-oxadiazol-5-yl)piperazine-1-carboxamide]",+++ (+++ ≥6)
18,"COc1ccc(-c2noc(N3CCC(C(=O)NCC4CCN(C[C@H]5CCCN(C)C5)C4)CC3)n2)cc1 (stereo partly drawn) [Compound 422, 1-(3-(4-methoxyphenyl)-1,2,4-oxadiazol-5-yl)-N-((1-(((S)-1-methylpiperidin-3-yl)methyl)pyrrolidin-3-yl)methyl)piperidine-4-carboxamide]",++ (++ ≥5 and <6)
19,"O=C(NCCCN1CCC(Oc2ccccc2)CC1)N1CCN(c2nc(-c3ccc(OC(F)(F)F)cc3)no2)CC1 [Compound 428, N-(3-(4-phenoxypiperidin-1-yl)propyl)-4-(3-(4-(trifluoromethoxy)phenyl)-1,2,4-oxadiazol-5-yl)piperazine-1-carboxamide]",+++ (+++ ≥6)
20,"O=C(NCCCN1CCC(Cc2ccccc2F)CC1)N1CCN(c2nc(-c3ccc(OC(F)(F)F)cc3)no2)CC1 [Compound 429, N-(3-(4-(2-fluorobenzyl)piperidin-1-yl)propyl)-4-(3-(4-(trifluoromethoxy)phenyl)-1,2,4-oxadiazol-5-yl)piperazine-1-carboxamide]",+++ (+++ ≥6)
21,"O=C(NCCCN1CCC(Cc2ccccn2)CC1)N1CCN(c2nc(-c3ccc(F)cc3)no2)CC1 [Compound 430, 4-(3-(4-fluorophenyl)-1,2,4-oxadiazol-5-yl)-N-(3-(4-(pyridin-2-ylmethyl)piperidin-1-yl)propyl)piperazine-1-carboxamide]",+++ (+++ ≥6)
22,"COc1ccc(-c2noc(N3CCC(C(=O)NC[C@H]4CCN(CC5CCN(C)CC5)C4)CC3)n2)cc1 [Compound 433, (R)-1-(3-(4-methoxyphenyl)-1,2,4-oxadiazol-5-yl)-N-((1-((1-methylpiperidin-4-yl)methyl)pyrrolidin-3-yl)methyl)piperidine-4-carboxamide]",+ (+ >3 and <5)
23,"COc1ccc(-c2noc(N3CCC(C(=O)NC[C@@H]4CCN(CC5CCN(C)CC5)C4)CC3)n2)cc1 [Compound 434, (S)-1-(3-(4-methoxyphenyl)-1,2,4-oxadiazol-5-yl)-N-((1-((1-methylpiperidin-4-yl)methyl)pyrrolidin-3-yl)methyl)piperidine-4-carboxamide]",+ (+ >3 and <5)
24,"O=C(NCCCN1CCC(Cc2ccccn2)CC1)C1CCN(c2nc(-c3ccc(OC(F)(F)F)cc3)no2)CC1 [Compound 435, N-(3-(4-(pyridin-2-ylmethyl)piperidin-1-yl)propyl)-1-(3-(4-(trifluoromethoxy)phenyl)-1,2,4-oxadiazol-5-yl)piperidine-4-carboxamide]",+++ (+++ ≥6)
25,"O=C(NCCCN1CCC(Cc2ccccn2)CC1)N1CCN(c2nc(-c3ccc(OC(F)(F)F)cc3)no2)CC1 [Compound 436, N-(3-(4-(pyridin-2-ylmethyl)piperidin-1-yl)propyl)-4-(3-(4-(trifluoromethoxy)phenyl)-1,2,4-oxadiazol-5-yl)piperazine-1-carboxamide]",+++ (+++ ≥6)
26,"O=C(NCCCN1CCC(Cc2ccccc2F)CC1)N1CCN(c2nc(-c3ccc(OC(F)F)cc3)no2)CC1 [Compound 438, 4-(3-(4-(difluoromethoxy)phenyl)-1,2,4-oxadiazol-5-yl)-N-(3-(4-(2-fluorobenzyl)piperidin-1-yl)propyl)piperazine-1-carboxamide]",+++ (+++ ≥6)
27,"O=C(NCC1(CN2CCC(Cc3ccccn3)CC2)CC1)N1CCN(c2nc(-c3ccc(OC(F)(F)F)cc3)no2)CC1 [Compound 450, N-((1-((4-(pyridin-2-ylmethyl)piperidin-1-yl)methyl)cyclopropyl)methyl)-4-(3-(4-(trifluoromethoxy)phenyl)-1,2,4-oxadiazol-5-yl)piperazine-1-carboxamide]",++ (++ ≥5 and <6)
28,"O=C(NCCCN1CCC(Cc2ccccn2)CC1)C1CCN(c2nc(-c3ccc(OC(F)F)cc3)no2)CC1 [Compound 453, 1-(3-(4-(difluoromethoxy)phenyl)-1,2,4-oxadiazol-5-yl)-N-(3-(4-(pyridin-2-ylmethyl)piperidin-1-yl)propyl)piperidine-4-carboxamide]",+++ (+++ ≥6)
